For 26 compounds, Emax and EC50 results are on record in patent publication US20250340574A1, “MODULATORS OF CYSTIC FIBROSIS TRANSMEMBRANE CONDUCTANCE REGULATOR” (Vertex Pharmaceuticals Incorporated, priority 2022, published 2025).

This experiment has as its target T1, CFTR (F508del/MF-HBE cells) (Homo sapiens, UniProt P13569, DEL508-508).
T1 construct: human bronchial epithelial (HBE) cells derived from CF subjects heterozygous for F508del and a minimal function CFTR mutation (F508del/MF-HBE); endogenous in cells; host or cells: Primary human bronchial epithelial cells from CF subjects (F508del/MF genotype), differentiated at an air-liquid interface
Nature of the experiment: Ussing chamber assay of CFTR-mediated short-circuit currents, Assay A (0.1 μM to 25 μM, 6 concentrations). Format: cell-based. The settings on record: with 33 nM potentiator and 18 μM Tezacaftor, 20% human serum; for Emax: 18-24 hours, read-out: A Max activity (%). How it is done:
Ussing chamber experiments were performed using human bronchial epithelial (HBE) cells derived from CF subjects heterozygous for F508del and a minimal function CFTR mutation (F508del/MF-HBE) and cultured as previously described (Neuberger T, Burton B, Clark H, Van Goor F Methods Mol Biol 2011:741:39-54). After four days the apical media was removed, and the cells were grown at an air liquid interface for >14 days prior to use.
To isolate the CFTR-mediated short-circuit (ISC) current, F508del/MF-HBE grown on Costar® Snapwell™ cell culture inserts were mounted in an Ussing chamber and the transepithelial ISC was measured under voltage-clamp recording conditions (Vhold=0 mV) at 37° C. The basolateral solution contained (in mM) 145 NaCl, 0.83 K2HPO4, 3.3 KH2PO4, 1.2 MgCl2, 1.2 CaCl2, 10 Glucose, 10 HEPES (pH adjusted to 7.4 with NaOH) and the apical solution contained (in mM) 145 NaGluconate, 1.2 MgCl2, 1.2 CaCl2, 10 glucose, 10 HEPES (pH adjusted to 7.4 with NaOH) and 30 μM amiloride to block the epithelial sodium channel. Forskolin (20 μM) was added to the apical surface to activate CFTR, followed by apical addition of a CFTR inhibitor cocktail consisting of BPO, GlyH-101, and CFTR inhibitor 172 (each at 20 μM final assay concentration) to specifically isolate CFTR currents. The CFTR-mediated ISC (μA/cm^2) for each condition was determined from the peak forskolin response to the steady-state current following inhibition.
The activity of the CFTR corrector compounds on the CFTR-mediated ISC was determined in Ussing chamber studies as described above. The F508del/MF-HBE cell cultures were either incubated with the corrector compounds at a range of concentrations in combination with 33 nM (6R,12R)-17-amino-12-methyl-6,15-bis(trifluoromethyl)-13,19-dioxa-3,4,18-triazatricyclo[12.3.1.12,5]nonadeca-1(18),2,4,14,16-pentaen-6-ol and 18 μM Tezacaftor or were incubated with the corrector compounds at a single fixed concentration of 1 μM in combination with 44 nM (6R,12R)-17-amino-12-methyl-6,15-bis(trifluoromethyl)-13,19-dioxa-3,4,18-triazatricyclo[12.3.1.12,5]nonadeca-1(18),2,4,14,16-pentaen-6-ol and 18 μM Tezacaftor for 18-24 hours at 37° C. and in the presence of 20% human serum. The concentration of corrector compounds with 44 nM or 33 nM (6R,12R)-17-amino-12-methyl-6,15-bis(trifluoromethyl)-13,19-dioxa-3,4,18-triazatricyclo[12.3.1.12,5]nonadeca-1(18),2,4,14,16-pentaen-6-ol and 18 μM Tezacaftor during the 18-24 hours incubations was kept constant throughout the Ussing chamber measurement of the CFTR-mediated ISC to ensure compounds were present throughout the entire experiment. The efficacy and potency of the putative F508del correctors was compared to that of the known Vertex corrector, (14S)-8-[3-(2-{Dispiro[2.0.2.1]heptan-7-yl}ethoxy)-1H-pyrazol-1-yl]-12,12-dimethyl-2λ^6-thia-3,9,11,18,23-pentaazatetracyclo[17.3.1.111,14.05,10]tetracosa-1(22),5,7,9,19(23),20-hexaene-2,2,4-trione, in combination with 18 μM Tezacaftor and 1 μM Ivacaftor.
• Assay A: 0.1 μM to 25 μM, 6 concentrations • Assay B: 0.00001 μM to 25 μM, 12 concentrations • Assay C: 0.026 μM to 25 μM, 6 concentrations • Assay D: Activity at single concentration of 1 μM

In general, EC50 refers to the concentration needed to bring the measured effect to its halfway point.

T1 sequence (P13569 with tags, fused parts or gaps DEL508-508): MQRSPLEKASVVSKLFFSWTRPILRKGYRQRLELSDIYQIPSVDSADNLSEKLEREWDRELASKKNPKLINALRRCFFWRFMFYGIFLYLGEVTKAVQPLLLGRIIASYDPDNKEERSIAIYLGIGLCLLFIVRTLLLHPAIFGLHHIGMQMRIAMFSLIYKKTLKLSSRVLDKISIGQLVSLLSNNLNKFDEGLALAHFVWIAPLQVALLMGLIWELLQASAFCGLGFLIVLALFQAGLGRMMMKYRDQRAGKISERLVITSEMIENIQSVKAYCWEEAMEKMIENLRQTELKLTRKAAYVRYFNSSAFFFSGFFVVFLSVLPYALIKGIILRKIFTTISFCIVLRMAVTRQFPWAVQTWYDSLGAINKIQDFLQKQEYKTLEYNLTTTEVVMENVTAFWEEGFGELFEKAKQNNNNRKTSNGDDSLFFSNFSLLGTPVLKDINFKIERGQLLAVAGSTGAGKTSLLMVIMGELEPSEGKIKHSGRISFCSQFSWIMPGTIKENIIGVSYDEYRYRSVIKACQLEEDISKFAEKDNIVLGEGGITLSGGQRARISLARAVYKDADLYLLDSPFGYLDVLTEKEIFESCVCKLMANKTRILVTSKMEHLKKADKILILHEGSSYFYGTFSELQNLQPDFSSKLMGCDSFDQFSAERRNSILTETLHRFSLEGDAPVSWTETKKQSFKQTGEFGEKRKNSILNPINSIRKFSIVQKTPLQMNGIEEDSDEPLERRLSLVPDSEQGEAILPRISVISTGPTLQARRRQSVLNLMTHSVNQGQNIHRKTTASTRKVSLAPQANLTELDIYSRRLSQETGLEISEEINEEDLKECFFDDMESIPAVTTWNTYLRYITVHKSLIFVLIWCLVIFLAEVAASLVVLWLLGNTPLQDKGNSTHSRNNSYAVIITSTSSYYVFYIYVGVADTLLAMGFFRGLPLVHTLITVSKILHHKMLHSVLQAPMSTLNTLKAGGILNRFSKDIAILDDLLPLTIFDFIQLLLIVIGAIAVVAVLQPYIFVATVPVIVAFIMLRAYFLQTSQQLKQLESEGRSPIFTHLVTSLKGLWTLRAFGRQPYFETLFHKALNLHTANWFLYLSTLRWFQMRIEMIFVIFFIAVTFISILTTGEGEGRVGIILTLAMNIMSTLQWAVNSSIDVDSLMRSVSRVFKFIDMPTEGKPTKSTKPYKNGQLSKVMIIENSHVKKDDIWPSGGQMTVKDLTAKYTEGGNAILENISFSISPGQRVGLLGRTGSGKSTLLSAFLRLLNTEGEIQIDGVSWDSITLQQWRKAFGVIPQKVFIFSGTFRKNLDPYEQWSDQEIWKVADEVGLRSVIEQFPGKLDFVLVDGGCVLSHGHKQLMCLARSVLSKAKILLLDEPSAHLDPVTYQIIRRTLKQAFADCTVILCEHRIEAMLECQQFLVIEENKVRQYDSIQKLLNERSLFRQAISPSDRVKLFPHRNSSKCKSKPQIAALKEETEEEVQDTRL

With `Cc1cccc(C)c1-c1cc2nc(n1)NS(=O)(=O)c1cccc(c1)C(=O)N(Cc1cn3ccc(C(C)C)cc3n1)[C@H](CC(C)(C)C)CO2` [III-1, (11R)-6-(2,6-dimethylphenyl)-11-(2,2-dimethylpropyl)-12-[(7-isopropylimidazo[1,2-a]pyridin-2-yl)methyl]-2,2-dioxo-9-oxa-2λ^6-thia-3,5,12,19-tetrazatricyclo[12.3.1.14,8]nonadeca-1(18),4(19),5,7,14,16-hexaen-13-one], the Emax was more than 60% and the EC50 was less than 1000 nM. Turning to `Cc1cccc(C)c1-c1cc2nc(n1)NS(=O)(=O)c1cccc(c1)C(=O)N(Cc1nc3cc(C(C)C)oc3cc1F)[C@@H](COC1CCC1)CO2` (stereo in doubt) [Compound I-95], the Emax is more than 60% and the EC50 was less than 1000 nM. In the case of `Cc1cccc(C)c1-c1cc2nc(n1)NS(=O)(=O)c1cccc(c1)C(=O)N(Cc1cnc3c(n1)CC(C(C)C)O3)[C@H](CC1(C)CC1)CO2` (single isomer, unassigned) [III-14], the EC50 was less than 1000 nM.

Consider `Cc1cccc(C)c1-c1cc2nc(n1)NS(=O)(=O)c1cccc(c1)C(=O)N(Cc1cnc3cc(C(C)C)n(C)c3n1)[C@@H](CCC1(C)CC1)CO2` (stereo in doubt) [Compound I-72], for which the Emax is more than 60% and the concentration giving a half-maximal response (EC50) was less than 1000 nM. The like results for `Cc1cccc(C)c1-c1cc2nc(n1)NS(=O)(=O)c1cccc(c1)C(=O)N(Cc1cnc3oc(C4CC4)cc3n1)[C@H](CCC1(C)CCC1)CO2` [Compound I-47] were, in that order, more than 60% and less than 1000 nM. The like results for `Cc1cccc(C)c1-c1cc2nc(n1)NS(=O)(=O)c1cccc(c1)C(=O)N(Cc1cnc3oc(C(C)C)cc3n1)[C@H](CC(C)(C)F)CO2` [Compound I-35] were, in that order, more than 60% and less than 1000 nM.

With `Cc1cccc(C)c1-c1cc2nc(n1)NS(=O)(=O)c1cccc(c1)C(=O)N(Cc1cnc3oc(C(C)C)cc3n1)[C@H](CCC(C)C)CO2` [Compound I-2], the Emax was more than 60% and the EC50 is less than 1000 nM. Taken in the same sequence, the figures for `Cc1cccc(C)c1-c1cc2nc(n1)NS(=O)(=O)c1cccc(c1)C(=O)N(Cc1cnc3oc(C(C)C)cc3n1)C(COC1CCC1)CO2` (single isomer, unassigned) [Compound I-49, 11-(cyclobutoxymethyl)-6-(2,6-dimethylphenyl)-12-[(6-isopropylfuro[2,3-b]pyrazin-2-yl)methyl]-2,2-dioxo-9-oxa-2λ^6-thia-3,5,12,19-tetrazatricyclo[12.3.1.14,8]nonadeca-1(18),4(19),5,7,14,16-hexaen-13-one] were more than 60% and less than 1000 nM. Taken in the same sequence, the figures for `Cc1cccc(C)c1-c1cc2nc(n1)NS(=O)(=O)c1cccc(c1)C(=O)N(Cc1cnc3oc(C(C)C)c(C)c3n1)[C@H](CCC(C)(C)C)CO2` [Compound I-11] were more than 60% and less than 1000 nM. Taken in the same sequence, the figures for `Cc1cccc(C)c1-c1cc2nc(n1)NS(=O)(=O)c1cccc(c1)C(=O)N(Cc1cnc3oc(C(C)C)cc3n1)[C@H](CC1CCOCC1)CO2` [Compound I-30, (11R)-6-(2,6-dimethylphenyl)-12-[(6-isopropylfuro[2,3-b]pyrazin-2-yl)methyl]-2,2-dioxo-11-(tetrahydropyran-4-ylmethyl)-9-oxa-2λ^6-thia-3,5,12,19-tetrazatricyclo[12.3.1.14,8]nonadeca-1(18),4(19),5,7,14,16-hexaen-13-one] were 30 to 60% and less than 1000 nM. In the case of `Cc1cccc(C)c1-c1cc2nc(n1)NS(=O)(=O)c1cccc(c1)C(=O)N(Cc1cnc3cc(C(C)C)n(C)c3n1)[C@H](CCC(C)(C)F)CO2` [Compound I-106], the Emax is more than 60% and the EC50 is less than 1000 nM. As for `Cc1cccc(C)c1-c1cc2nc(n1)NS(=O)(=O)c1cccc(c1)C(=O)N(Cc1cnc3cc(C(C)C)n(C)c3n1)[C@H](CC13CC(C1)C3)CO2` [Compound I-40], the Emax is more than 60% and the EC50 was less than 1000 nM.

For `Cc1cccc(C)c1-c1cc2nc(n1)NS(=O)(=O)c1cccc(c1)C(=O)N(Cc1cnc3nc(C(C)C)n(C)c3n1)[C@H](COC(C)C)CO2` [Compound I-90], the Emax was more than 60% and the EC50 was less than 1000 nM.

Turning to `Cc1cccc(C)c1-c1cc2nc(n1)NS(=O)(=O)c1cccc(c1)C(=O)N(Cc1cnc3oc(C(C)C)cc3n1)[C@H](CC(C)C)CO2` [Compound I-1], the Emax was more than 60% and the EC50 was less than 1000 nM. Taken in the same sequence, the figures for `Cc1cccc(C)c1-c1cc2nc(n1)NS(=O)(=O)c1cccc(c1)C(=O)N(Cc1nc3c(cc1F)nc(C(C)C)n3C)[C@H](CC(C)(C)C)CO2` [Compound I-69] were more than 60% and less than 1000 nM.

`Cc1cccc(C)c1-c1cc2nc(n1)NS(=O)(=O)c1cccc(c1)C(=O)N(Cc1cnc3cc(C(C)C)n(C)c3n1)[C@H](C[C@@H]1CCCO1)CO2` (stereo in doubt) [Compound I-16]: the Emax was more than 60% and the EC50 was less than 1000 nM. Taken in the same sequence, the figures for `Cc1cccc(C)c1-c1cc2nc(n1)NS(=O)(=O)c1cccc(c1)C(=O)N(Cc1cnc3oc(C(C)C)c(C#N)c3n1)[C@H](COC(C)C)CO2` [Compound I-91] were more than 60% and less than 1000 nM.

In the case of `Cc1cccc(C)c1-c1cc2nc(n1)NS(=O)(=O)c1cccc(c1)C(=O)N(Cc1cnc3oc(C4CC4)cc3n1)[C@H](CC(C)(C)C)CO2` [Compound I-20], the Emax is more than 60% and the EC50 was less than 1000 nM.

On to `Cc1cccc(C)c1-c1cc2nc(n1)NS(=O)(=O)c1cccc(c1)C(=O)N(Cc1cnc3oc(C4CC4)cc3n1)[C@@H](COC1CCC1)CO2` (stereo in doubt) [Compound I-58], for which the Emax is more than 60% and the EC50 is less than 1000 nM. `Cc1cccc(C)c1-c1cc2nc(n1)NS(=O)(=O)c1cccc(c1)C(=O)N(Cc1cnc3oc(C(C)C)c(C)c3n1)[C@@H](COC1CCC1)CO2` (stereo in doubt) [Compound I-93]: the Emax is more than 60% and the EC50 is less than 1000 nM. The like results for `Cc1cccc(C)c1-c1cc2nc(n1)NS(=O)(=O)c1cccc(c1)C(=O)N(Cc1cnc3nc(C(C)C)n(C)c3n1)[C@H](CC1(C)CC1)CO2` [Compound I-75] were, in that order, more than 60% and less than 1000 nM.

As to `Cc1cccc(C)c1-c1cc2nc(n1)NS(=O)(=O)c1cccc(c1)C(=O)N(Cc1cn3cccc(C#N)c3n1)[C@H](CC(C)(C)C)CO2` [III-10], the Emax was more than 60% and the EC50 was less than 1000 nM. As for `Cc1cccc(C)c1-c1cc2nc(n1)NS(=O)(=O)c1cccc(c1)C(=O)N(Cc1cnc3oc(C4CC4)cc3n1)[C@H](CC(C)(C)F)CO2` [Compound I-51], the Emax is more than 60% and the EC50 was less than 1000 nM.

Turning to `Cc1cccc(C)c1-c1cc2nc(n1)NS(=O)(=O)c1cccc(c1)C(=O)N(Cc1cnc3oc(C(C)C)c(C)c3n1)[C@H](CCC1(C)CCC1)CO2` [Compound I-34], the Emax is more than 60% and the EC50 is less than 1000 nM.

As to `Cc1cccc(C)c1-c1cc2nc(n1)NS(=O)(=O)c1cccc(c1)C(=O)N(Cc1cnc3oc(C(C)C)cc3n1)[C@H](C[C@H]1CCCCO1)CO2` [Compound I-7], the Emax is more than 60% and the concentration giving a half-maximal response (EC50) is less than 1000 nM.

With `Cc1cccc(C)c1-c1cc2nc(n1)NS(=O)(=O)c1cccc(c1)CN(C(=O)c1cncc(N(C)C3CCC3)n1)[C@H](CC(C)(C)C)CO2` [II-36], the Emax was in the range of 30 to 60% and the EC50 was in the range of 1000 to 3000 nM.
